From BindingDB's records for doi:10.1016/j.chembiol.2008.07.013 (University of Connecticut, 2008)
pIC50: −log10 of the molar value.

Molecular target: T1, Dihydrofolate reductase (Candida glabrata (strain ATCC 2001 / BCRC 20586 / JCM 3761 / NBRC 0622 / NRRL Y-65 / CBS 138), UniProt Q6FPH0)
T1 sequence (Q6FPH0 whole entry): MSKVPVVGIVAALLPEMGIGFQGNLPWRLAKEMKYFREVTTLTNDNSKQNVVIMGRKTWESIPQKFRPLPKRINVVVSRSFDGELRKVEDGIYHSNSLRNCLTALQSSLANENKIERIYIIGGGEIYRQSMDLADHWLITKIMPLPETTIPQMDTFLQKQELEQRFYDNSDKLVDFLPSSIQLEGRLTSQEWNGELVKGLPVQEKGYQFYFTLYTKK
Assay: Enzyme Inhibition Assay
Settings: 25 °C
Description: Enzyme inhibition assay using CgDHFR and hDHFR performed at 25 degree Celsius by monitoring the rate of enzyme-dependent NADPH oxidation at an absorbance of 340 nm over several minutes.

| Compound | pIC50 |
| --- | --- |
| CCc1nc(N)nc(N)c1C#CCc1cc(OC)ccc1OC [5-[3-(2,5-dimethoxyphenyl)prop-1-yn-1-yl]-6-ethylpyrimidine-2,4-diamine] | 8.09 |
| COc1ccc(OC)c(CC#Cc2cnc(N)nc2N)c1 [5-[3-(2,5-dimethoxyphenyl)prop-1-yn-1-yl]pyrimidine-2,4-diamine] | 7.68 |
| COc1cc(CC#Cc2cnc(N)nc2N)cc(OC)c1OC [JMC517532 Compound 3] | 7.66 |

Continued, values first:

| pIC50 | Compound |
| --- | --- |
| 7.52 | COc1cc([C@@H](C#Cc2c(C)nc(N)nc2N)OC)cc(OC)c1OC [JMC517532 Compound 10] |
| 7.49 | COc1ccc(OC)c(CC#Cc2c(C)nc(N)nc2N)c1 [Propargyl-linked, 10] |
| 7.60 | COc1cc(C(C)C#Cc2c(C)nc(N)nc2N)cc(OC)c1OC (configuration not stated) [Propargyl-substituted antifolate, 8] |
| 7.41 | COc1cc([C@@H](O)C#Cc2c(C)nc(N)nc2N)cc(OC)c1OC [Propargyl-substituted antifolate, 9] |
